For one series, the system named is 72.3-derived HLOs. The experiment in a line: Morphological cell profiling. It counts as cell-based, human. The settings on record: for phenotypic cluster (UMAP/HDBScan): cells treated at respective IC50, 72.3-derived HLOs.
Series [1] has as its system PaDLOCs. The experiment in a line: PaDLOC. The settings on record: for albumin production: across 7 days; for ALT or AST release: monotherapy 500 nM. It counts as cell-based, human.
The test system of a further series is PHH PaDLOCs. The series is described as follows: PHH liver-chip ALT/AST release and albumin production. It counts as cell-based, human. The conditions noted are these: PHH on chip; APAP and FIAU.
For series [2], the system named is PaDLOCs. The series is described as follows: PaDLOC confocal imaging. The class given is cell-based, human. The settings on record: for UMAP morphological clustering: PaDLOCs, CellProfiler cell-level features; for morphological deviation: monotherapy 500 nM.
Series [3] concerns PaDLOCs. The series is described as follows: scRNA-seq differential expression in hepatocytes of drug-treated PaDLOCs. The class given is cell-based, human. The settings on record: fialuridine 10 μM, tenofovir 500 nM; for KCNQ10T1 expression / RPS10 expression: compared to control; for DGAT1 expression: tenofovir-inarigivir 250 + 250 nM.
In another series the test system is dispersed HLOs. The series is described as follows: Dispersed HLOs in 384-well plates, cell viability counts by high-content imaging. It counts as cell-based, human. The settings on record: for cytotoxicity: monotherapies up to concentration of 100 μM, 120 hrs.
Another series concerns patients. The conditions noted are these: monotherapy, two clinical trials for HBV; cited from earlier work.
The test system of series [4] is PaDLOCs. The experiment in a line: Metabolic turnover of CYP substrates in PaDLOCs. The settings on record: PaDLOCs vs plate-cultured intact HLOs; slightly lower rates than PHHs.
For series [5] the following is noted: in vivo; cited from earlier work.
Setting [6] is: single agents 500 nM, combination 250 + 250 nM.

Entries after “also recorded” stand apart in the source; their conditions may differ.

Regarding `Nc1nc2nc[nH]c2c(=S)[nH]1` [thioguanine], the “phenotypic cluster (UMAP/HDBScan)” value in the series on 72.3-derived HLOs is given as “Cluster α”.

For the compound `CO[C@H]1/C=C/O[C@@]2(C)Oc3c(C)c(O)c4c(O)c(c(/C=N/N5CCN(C)CC5)c(O)c4c3C2=O)NC(=O)/C(C)=C\C=C\[C@H](C)[C@H](O)[C@@H](C)[C@@H](O)[C@@H](C)[C@H](OC(C)=O)[C@@H]1C` [rifampin], the “phenotypic cluster (UMAP/HDBScan)” value in the series with 72.3-derived HLOs is on record as “Cluster γ”.

Turning to `O=c1[nH]c(=O)n([C@@H]2O[C@H](CO)[C@@H](O)[C@@H]2F)cc1I` [FIAU, fialuridine], the “multidimensional perturbation of cells” value in the series on 72.3-derived HLOs (sub-cytotoxic concentrations, Fig. S5 B-C) is “diminished mitochondrial mass and lipid accumulation”. In addition, the albumin production result with PaDLOCs [1] (APAP 100 μM, FIAU 10 μM) is “diminished”. In addition, in the series on PHH PaDLOCs, the “ALT/AST release and reduced albumin production” value is “not significant”. Moreover, in the series with PaDLOCs [2] (APAP 100 μM, FIAU 10 μM, day 7 of treatment), the “confocal phenotype (CellMask, lipid droplets)” value was “high lipid content and a reduction of CellMask staining”. Moreover, in the series with PaDLOCs [3], the KCNQ10T1 expression result is given as “overexpression”, the RPS10 expression result is “suppressed expression”, the GSTP1 expression entry is on record as “decreased expression” and the DGAT1 expression result is on record as “downregulated”.

As for `CO[C@@H]1[C@H](OP(=O)(OC[C@H]2O[C@@H](n3cnc4c(N)ncnc43)C[C@@H]2O)SCOC(=O)OC(C)C)[C@@H](CO)O[C@H]1n1ccc(=O)[nH]c1=O` (stereo partly shown) [inarigivir soproxil], the cytotoxicity result in the series on dispersed HLOs is given as “negligible cytotoxicity”. Moreover, the “ALT or AST release” value in the series on PaDLOCs [1] is recorded as “did not increase ALT or AST release”. The albumin production result in the series with PaDLOCs [1] (setting [6]) is on record as “no effect was observed”. Also, in the series with PaDLOCs [2], the UMAP morphological clustering result was “clustered with DMSO control” and the morphological deviation entry is recorded as “no morphological deviation from DMSO-treated control”. The “toxicity in clinical trials” value with patients is listed as “no clear signs of toxicity”.

For `Oc1ncnc2[nH]ncc12` [allopurinol], the “phenotypic cluster (UMAP/HDBScan)” value with 72.3-derived HLOs is on record as “Cluster α; also recorded: Cluster γ”.

In the case of `CC(=O)Nc1ccc(O)cc1` [APAP, acetaminophen], the albumin production result in the series with PaDLOCs [1] (APAP 100 μM, FIAU 10 μM) is reported as “diminished”. The “ALT/AST release and reduced albumin production” value in the series on PHH PaDLOCs was “not significant”. Further, in the series on PaDLOCs [2], the UMAP morphological clustering entry is recorded as “unique cluster”. Further, the metabolic turnover rate entry in the series with PaDLOCs [4] is “increased rates compared to plate-cultured intact HLOs”.

Regarding `O=P1(N(CCCl)CCCl)NCCCO1` (stereo not shown) [cyclophosphamide], the metabolic turnover rate result in the series with PaDLOCs [4] is listed as “increased rates compared to plate-cultured intact HLOs”.

For the compound `Cc1ccnc2c1NC(=O)c1cccnc1N2C1CC1` [nevirapine], the “IC50 relative to reported Cmax in patients” value with dispersed HLOs (72.3 derived HLOs, Cmax ref 53) is on record as “over double that of reported Cmax”. Besides, the “phenotypic cluster (UMAP/HDBScan)” value with 72.3-derived HLOs was “Cluster γ”.

The term Cmax denotes the maximum level reached in the sampled fluid or tissue. With `C[C@H](Cn1cnc2c(N)ncnc21)OCP(=O)(O)O` [tenofovir], the cytotoxicity entry with dispersed HLOs was “negligible cytotoxicity”. Besides, the “ALT or AST release” value in the series on PaDLOCs [1] is “did not increase ALT or AST release”. Further, in the series with PaDLOCs [1] (setting [6]), the albumin production entry is listed as “no effect was observed”. In the series with PaDLOCs [2], the UMAP morphological clustering entry is given as “clustered with DMSO control” and the morphological deviation result is recorded as “no morphological deviation from DMSO-treated control”. Further, in the series on PaDLOCs [3], the KCNQ10T1 expression result is reported as “overexpression”, the RPS10 expression entry was “suppressed expression”, the GSTP1 expression result is listed as “decreased expression” and the DGAT1 expression entry is “downregulated”. The Cmax in series [5] was around 500 nM.

(Values after PMC11268729 (Journal of hepatology, 2023).)
